Data: PubChem BioAssay (NCI)
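Cultured in 96-well plates, cells were exposed to test compound for 48 hours across five concentrations. TGI: concentration producing complete growth inhibition.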

Columns and labels:
Test in all cases: growth of human tumour cells (NCI), 48 h
[1] = system: IGROV1 ovarian
[2] = system: NCI-H522 lung
[3] = system: XF 498 CNS
[4] = system: SK-MEL-5 melanoma
[5] = system: COLO 205 colon
[6] = system: ACHN renal
[7] = system: NCI-H23 lung
[8] = system: SW-620 colon
[9] = system: CAKI-1 renal
[10] = system: DMS 114 small cell lung
[11] = system: A549 NSCLC
[12] = system: DMS 273 small cell lung
[13] = system: SNB-19 CNS
[14] = system: UACC-257 melanoma
[15] = system: UO-31 renal
[16] = system: EKVX NSCLC
[17] = system: RPMI-8226 leukemia
[18] = system: NCI-H226 lung
[19] = system: UACC-62 melanoma
[20] = system: SK-OV-3 ovarian
[21] = system: LOX IMVI melanoma
[22] = system: SN12C renal
[23] = system: SF-539 CNS
[24] = system: U251 CNS
[25] = system: SF-268 CNS
[26] = system: MOLT-4 leukemia
[27] = system: CCRF-CEM leukemia
[28] = system: MALME-3M melanoma
[29] = system: 786-0 renal
[30] = system: SR leukemia
[31] = system: HCC-2998 colon
[32] = system: HT29 colon
[33] = system: SNB-78 CNS
[34] = system: SNB-75 CNS
[35] = system: HOP-18 NSCLC
[36] = system: SF-295 CNS
[37] = system: M14 melanoma
[38] = system: HCT-116 colon
[39] = system: OVCAR-5 ovarian
[40] = system: NCI-H460 lung
[41] = system: TK-10 renal
[42] = system: HL-60(TB) leukemia
[43] = system: OVCAR-8 ovarian
[44] = system: HOP-62 NSCLC
[45] = system: K-562 leukemia
[46] = system: DLD-1 colon
[47] = system: M19-MEL melanoma
[48] = system: A498 renal
[49] = system: LXFL 529 NSCLC
[50] = system: KM12 colon
[51] = system: OVCAR-3 ovarian
[52] = system: OVCAR-4 ovarian
[53] = system: HCT-15 colon
[54] = system: RXF 393 renal
[55] = system: SK-MEL-28 melanoma
[56] = system: SK-MEL-2 melanoma
[57] = system: KM20L2 colon
[58] = system: HOP-92 NSCLC

How did the TGI [1] turn out when `CC(C)NCCCC(C)Nc1ccnc2ccc3nn(C)nc3c12` (stereo not given) was run?
Its TGI is > 100 µM.

What about the TGI [2] of the same molecule?
Its TGI is > 100 µM.

And the TGI [3]?
The TGI was > 100 µM.

What about the TGI [4] of the same molecule?
Its TGI is > 100 µM.

And the TGI [5]?
The TGI was > 100 µM.

What about the TGI [6] of the same molecule?
The TGI was > 100 µM.

And the TGI [7]?
The TGI was > 100 µM.

And the TGI [8]?
Its TGI is > 100 µM.

And the TGI [9]?
Its TGI is > 100 µM.

And the TGI [10]?
Its TGI is > 100 µM.

And the TGI [11]?
The TGI was > 100 µM.

And the TGI [12]?
The TGI was > 100 µM.

What about the TGI [13] of the same molecule?
Its TGI is > 100 µM.

What about the TGI [14] of the same molecule?
The TGI was > 100 µM.

And the TGI [15]?
Its TGI is > 100 µM.

What about the TGI [16] of the same molecule?
Its TGI is > 100 µM.

And the TGI [17]?
Its TGI is > 100 µM.

And the TGI [18]?
The TGI was > 100 µM.

And the TGI [19]?
The TGI was > 100 µM.

What about the TGI [20] of the same molecule?
The TGI was > 100 µM.

And the TGI [21]?
The TGI was > 100 µM.

What about the TGI [22] of the same molecule?
The TGI was > 100 µM.

What about the TGI [23] of the same molecule?
The TGI was > 100 µM.

And the TGI [24]?
Its TGI is > 100 µM.

What about the TGI [25] of the same molecule?
The TGI was > 100 µM.

And the TGI [26]?
Its TGI is > 100 µM.

What about the TGI [27] of the same molecule?
Its TGI is > 100 µM.

And the TGI [28]?
Its TGI is > 100 µM.

What about the TGI [29] of the same molecule?
The TGI was > 100 µM.

And the TGI [30]?
The TGI was > 100 µM.

And the TGI [31]?
The TGI was > 100 µM.

What about the TGI [32] of the same molecule?
The TGI was > 100 µM.

And the TGI [33]?
Its TGI is > 100 µM.

And the TGI [34]?
The TGI was > 100 µM.

And the TGI [35]?
Its TGI is > 100 µM.

And the TGI [36]?
Its TGI is > 100 µM.

What about the TGI [37] of the same molecule?
The TGI was > 100 µM.

And the TGI [38]?
The TGI was > 100 µM.

What about the TGI [39] of the same molecule?
Its TGI is > 100 µM.

What about the TGI [40] of the same molecule?
The TGI was > 100 µM.

What about the TGI [41] of the same molecule?
Its TGI is > 100 µM.

And the TGI [42]?
Its TGI is > 100 µM.

What about the TGI [43] of the same molecule?
Its TGI is > 100 µM.

What about the TGI [44] of the same molecule?
Its TGI is > 100 µM.

And the TGI [45]?
The TGI was > 100 µM.

What about the TGI [46] of the same molecule?
The TGI was > 100 µM.

And the TGI [47]?
The TGI was > 100 µM.

What about the TGI [48] of the same molecule?
Its TGI is > 100 µM.

And the TGI [49]?
Its TGI is > 100 µM.

And the TGI [50]?
Its TGI is > 100 µM.

What does the source list for `O=C(NN1C(=O)C(Cl)C1c1ccc(O)cc1)c1ccccc1O` (stereo not given)?
TGI [51]: 31.7 µM; TGI [1]: 27.5 µM; TGI [2]: 34.5 µM; TGI [3]: 23.7 µM; TGI [4]: 27.7 µM; TGI [52]: 40.4 µM; TGI [6]: 34.5 µM; TGI [7]: 41.8 µM; TGI [53]: 30.6 µM; TGI [10]: 29.6 µM; TGI [11]: 50 µM; TGI [12]: 25.5 µM; TGI [13]: 43.7 µM; TGI [14]: 55.9 µM; TGI [15]: 29 µM; TGI [18]: 30.7 µM; TGI [19]: 32.3 µM; TGI [20]: 59.5 µM; TGI [21]: 31.7 µM; TGI [54]: 27 µM; TGI [22]: 43.7 µM; TGI [23]: 38.5 µM; TGI [24]: 27.3 µM; TGI [25]: 41.2 µM; TGI [26]: > 100 µM; TGI [55]: 36.5 µM; TGI [27]: > 100 µM; TGI [28]: 34.5 µM; TGI [29]: 33.5 µM; TGI [32]: 36.1 µM; TGI [33]: 65.4 µM; TGI [34]: > 100 µM; TGI [35]: 30.4 µM; TGI [36]: 33.9 µM; TGI [37]: 38.4 µM; TGI [38]: 28.5 µM; TGI [56]: 48.3 µM; TGI [40]: 35.7 µM; TGI [41]: 70.6 µM; TGI [42]: > 100 µM; TGI [43]: 30.8 µM; TGI [45]: > 100 µM; TGI [46]: 30.6 µM; TGI [47]: 40.6 µM; TGI [49]: 33.3 µM; TGI [50]: 29.5 µM

For `O=[N+]([O-])c1ccc(C2=Nn3c(nnc3-c3ccccc3)SC2)o1`, which TGI [51] is on record?
Its TGI is 31.8 µM.

And the TGI [1]?
Its TGI is 47.6 µM.

And the TGI [3]?
The TGI was 38.9 µM.

What about the TGI [57] of the same molecule?
The TGI was 53.5 µM.

What about the TGI [4] of the same molecule?
The TGI was 32.6 µM.

What about the TGI [5] of the same molecule?
The TGI was 49.9 µM.

And the TGI [52]?
Its TGI is 41.5 µM.

What about the TGI [6] of the same molecule?
Its TGI is 33.8 µM.

What about the TGI [7] of the same molecule?
The TGI was 42.8 µM.

And the TGI [53]?
Its TGI is 38.2 µM.

And the TGI [8]?
Its TGI is 40.5 µM.

And the TGI [9]?
Its TGI is 35 µM.

And the TGI [10]?
The TGI was 38.8 µM.

What about the TGI [11] of the same molecule?
The TGI was > 100 µM.

And the TGI [12]?
The TGI was 48.7 µM.

What about the TGI [13] of the same molecule?
Its TGI is > 100 µM.

What about the TGI [14] of the same molecule?
The TGI was 36.5 µM.

And the TGI [16]?
Its TGI is > 100 µM.

What about the TGI [17] of the same molecule?
The TGI was > 100 µM.

What about the TGI [18] of the same molecule?
Its TGI is > 100 µM.

And the TGI [19]?
Its TGI is 36.3 µM.

What about the TGI [20] of the same molecule?
The TGI was > 100 µM.

And the TGI [54]?
The TGI was 53.5 µM.

What about the TGI [22] of the same molecule?
Its TGI is 32.4 µM.

What about the TGI [23] of the same molecule?
Its TGI is 39 µM.

What about the TGI [24] of the same molecule?
Its TGI is 33.7 µM.

And the TGI [25]?
Its TGI is 42.8 µM.

And the TGI [26]?
The TGI was 70.8 µM.

And the TGI [55]?
The TGI was > 100 µM.

And the TGI [27]?
The TGI was 20.2 µM.

And the TGI [28]?
The TGI was 47.5 µM.

And the TGI [29]?
Its TGI is 40.7 µM.

What about the TGI [31] of the same molecule?
Its TGI is 35.7 µM.

What about the TGI [32] of the same molecule?
The TGI was 52.8 µM.

What about the TGI [33] of the same molecule?
Its TGI is 44.7 µM.

And the TGI [34]?
Its TGI is 38.9 µM.

And the TGI [35]?
Its TGI is 34.8 µM.

And the TGI [36]?
Its TGI is 31.8 µM.

And the TGI [37]?
Its TGI is 32 µM.

What about the TGI [38] of the same molecule?
The TGI was 35.6 µM.

What about the TGI [39] of the same molecule?
Its TGI is 65.8 µM.

And the TGI [56]?
The TGI was 49 µM.

What about the TGI [40] of the same molecule?
The TGI was 41.6 µM.

What about the TGI [41] of the same molecule?
The TGI was 34.5 µM.

What about the TGI [58] of the same molecule?
Its TGI is 34.1 µM.

And the TGI [42]?
The TGI was 37.8 µM.

What about the TGI [43] of the same molecule?
Its TGI is 45.9 µM.

What about the TGI [44] of the same molecule?
Its TGI is > 100 µM.

And the TGI [45]?
The TGI was > 100 µM.

What about the TGI [46] of the same molecule?
Its TGI is 30.2 µM.

What about the TGI [47] of the same molecule?
Its TGI is 41.1 µM.

What about the TGI [48] of the same molecule?
Its TGI is > 100 µM.

What about the TGI [49] of the same molecule?
Its TGI is 29.9 µM.

What about the TGI [50] of the same molecule?
The TGI was 42.4 µM.
